Values of other authors in US10015963B2, “Microemulsions of lipidated glycines and phenoxy ethanol for preservation of personal care products” (GALAXY SURFACTANTS LTD., priority 2014, dated 2018).

Experiments:
[1] = carboxyl group
[2] = at room temperature

Compound | pKa [1] | phenoxy ethanol solubilized in water [2]
CCCCCCCC(=O)NCC(=O)O [capryloyl glycine, N-capryloyl glycine] | 4.05 | 
OCCOc1ccccc1 [phenoxy ethanol, 2-phenoxy ethanol] |  | 2.3%
